Test results published in patent US7655225B2, “Methods of expanding stem and progenitor cells and expanded cell populations obtained thereby” (Gamida Cell, Ltd., priority 2002, dated 2010).

System: CD34+ cells
Test: Ex vivo expansion of purified CD34+ cells in liquid culture: cell enumeration and FACS of subsets
Type: cell-based, human
Conditions: for density of CD34+CD38− cells, fold higher than untreated control / density of CD34+ Lin− progenitor cells, fold higher than untreated control: with IL-3; for density of CD34+CD38− cells, fold higher than untreated control: FIG. 6b; for density of CD34+ Lin− progenitor cells, fold higher than untreated control: FIG. 6c
Protocol: Sample collection and processing: Samples were obtained from umbilical human cord blood and processed within 12 hours. The blood cells were mixed with 3% Gelatin (Gigma, St. Louis, Mo.) and allowed to sediment for 30 minutes to remove most red blood cells. The leukocyte-rich fraction was harvested, layered on Ficoll-Hypaque (density 1.077 gram/ml; Sigma) and centrifuged at 400 g for 30 minutes at room temperature. The mononuclear cells in the interface layer were then collected, washed three times in phosphate-buffered saline (PBS; Biological Industries), and re-suspended in PBS solution which contains 1% bovine serum albumin (BSA; Sigma). The cells were then incubated at 4° C. for 30 minutes with murine monoclonal anti CD34^+ antibody (0.5 μg/10^6 mononuclear cells) and were thereafter isolated using two cycles of immuno-magnetic separation using the miniMACS CD34^+ Progenitor Cell Isolation Kit (Miltenyi-Biotec, Auburn, Calif.) according to the manufacturer's recommendations. The purity of the CD34^+ cells obtained ranged between 95% and 98%, based on Flow Cytometry evaluation (see below). Ex vivo expansion of progenitor cells: Enriched CD34^+ cell fractions were cultures in 24-well Costar Cell Culture Clusters (Corning Inc., Corning, N.Y.) or in Culture Bags (American Fluoroseal Corp.) with alpha minimal essential medium supplemented with 10% fetal bovine serum (FBS, Biological Industries), at about 1-3×10^4 cells/ml medium. The media were further supplemented with the following human recombinant cytokines (all obtained from Perpo Tech, Inc., Rocky Hill, N.J.): Thrombopoietin (TPO), 50 ng/ml; interleukin 6 (IL-6), 50 ng/ml; FLT-3 ligand, 50 ng/ml; and IL-3, 20 ng/ml. The cultures were incubated at 37° C. in an atmosphere of 5% CO2 in air with extra humidity. At weekly intervals cell cultures were semi-depopulated and supplemented with fresh medium containing the cytokines. Following different incubation periods, the cells were harvested, stained with trypan blue and enumerated. The total cell counts, numbers of CD34^+ cells and subsets thereof, and the number of colony-forming cells (CFU) are presented herein as cumulative numbers, with the assumption that the cultures had not been passaged, namely, the numbers of cells per ml were multiplied by the number of passages performed. Surface antigen analysis: At different time intervals, the cultured cells were harvested, washed with a PBS solution containing 1% BSA and 0.1% sodium azide (Sigma), and stained, at 4° C. for 60 minutes, with FITC-labeled anti CD45 monoclonal antibody and either PE-labeled anti CD34 (HPCA-2) monoclonal or PE-labeled control mouse Ig (all from Immunoquality Products, the Netherlands). The cells were then washed with the same PBS solution and were analyzed by a flow cytometer, as described hereinafter. Flow cytometry analysis: Cells were analyzed and sorted using FACS caliber flow cytometer (Becton-Dickinson, Immunofluorometry systems, Mountain View, Calif.). Cells were passed at a rate of 1,000 cells/second through a 70 μm nozzle, using a saline sheath fluid. A 488 nm argon laser beam at 250 mW served as the light source for excitation. Fluorescence emission of ten thousand cells was measured using a logarithmic amplification and analyzed using CellQuest software. Determination of the density of stem and progenitor subset populations following expansion: Following an incubation period, the CD34^+ cells were re-selected using miniMACS Miltenyi kit. The purity of the positive fraction of selected CD34^+ cells was confirmed by FACS analysis as well as by cell morphology analysis. The density of CD34^+ cells, in proportion (percentage) to total cells, was determined directly via FACS analysis. The densities of CD34^+ subset populations were determined from the purified CD34^+ fraction. Re-selected CD34^+ cells were stained with lineage specific antigens followed by FACS analysis to determine the percentage of the subset populations within the total number of CD34^+ cells. […]

SMILES: NCCNCCNCCNCCN [TEPA chelator, tetraethylenepentamine]
- density of CD34+ CD38− subset cells vs untreated or TEPA-Cu treatment (three weeks, 5 μM, FIG. 12b): substantially increased
- density of CD34+ Lin− subset cells vs untreated or TEPA-Cu treatment (three weeks, 5 μM, FIG. 12c): substantially increased
- density of CD34+CD38− cells vs untreated or TEPA-Cu treatment (two and three weeks, 5 μM, FIG. 13b): substantially higher
- density of CD34+ Lin− cells vs untreated or TEPA-Cu treatment (two and three weeks, 5 μM, FIG. 13c): substantially higher
- density of CD34+ cells vs untreated control (two weeks culture, 5 μM, FIGS. 11a-b): slightly decreased

SMILES: NCCNCCNCCNCCN.[Cl-].[Cl-].[Cu+2] [TEPA-Cu chelate, tetraethylenepentamine-copper chelate]
- density of CD34+CD38− cells, fold higher than untreated control (20 μM, two weeks): 5 fold
- density of CD34+ Lin− progenitor cells, fold higher than untreated control (20 μM, two weeks): 3 fold
- density of CD34+CD38− cells, fold higher than untreated control (40 μM, two weeks): 15 fold
- density of CD34+ Lin− progenitor cells, fold higher than untreated control (40 μM, two weeks): 5 fold
- density of CD34+CD38− cells, fold higher than untreated control (50 μM, two weeks): 15 fold
- density of CD34+ Lin− progenitor cells, fold higher than untreated control (50 μM, two weeks): 4 fold
- number of CD34+ cells vs untreated (cytokines only) culture (2 and 3 weeks, 30 μM or 40 μM, FIG. 5a): remained almost unchanged
- number of CD34+CD38− cells, fold higher than untreated control (3 weeks, 30 μM or 40 μM, FIG. 5b): 6-7 fold
- number of CD34+ Lin− cells, fold higher than untreated control (3 weeks, 30 μM or 40 μM, FIG. 5c): 4-6.5 fold
- density of CD34+ stem cells, expansion (three weeks, 40 μM, TPO, FLT-3, IL-6, SCF, untreated 40 fold, FIG. 4a): 50 fold
- density of CD34+CD38− progenitor cells, expansion (three weeks, 40 μM, untreated 5 fold, FIG. 4b): 250 fold
- density of CD34+ Lin− progenitor cells, expansion (three weeks, 40 μM, untreated 10 fold, FIG. 4c): 110 fold
- more total cells as compared with the untreated control (three weeks, 50 μM, FIG. 8a): ca. 25%
- density of CD34+ CD38− subset cells vs untreated control (three weeks, 50 μM, FIG. 8c): substantially higher
- density of CD34+ Lin− subset cells vs untreated control (three weeks, 50 μM, FIG. 8d): substantially higher
- CD34+ cell expansion vs untreated control (two weeks culture, 40 μM, FIGS. 11a-b): did not significantly affect
- density of CD34+CD61+ progenitor cells, fold vs untreated control (two weeks, 40 μM, FIG. 7a): ca. 2 fold
- density of CD34+CD41+ progenitor cells, fold vs untreated control (two weeks, 40 μM, FIG. 7b): ~3 fold
- density of CD34+ stem cells, fold higher than untreated control (two weeks, 20, 40 and 50 μM, TPO, FLT-3, IL-6, IL-3, FIG. 6a): ca. 1.5 fold
